From the supplement of paper PMC5908809

Columns and labels:
[1] = tested on: normal NK cells expanded with K562-aAPC; experiment: percent inhibition of viability; higher = more inhibition; settings: 72 h, IL-2 2.5 ng/mL
Procedure: (§1)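 Drug sensitivity and resistance testing on K562-aAPC-expanded normal NK cells: 5 concentrations (10-fold steps over a 10,000-fold range), 72 h at 37 °C, viability by CellTiter-Glo normalised to DMSO and benzethonium chloride controls; DSS from the fitted curve.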

DERL-7 (IL-2 2.5 ng/mL) [2] = experiment: as above; settings: 72 h
IMC-1 (IL-2 20 ng/mL) [3] = experiment: as above; settings: 72 h
KAI3 (IL-2 2.5 ng/mL) [4] = experiment: as above; settings: 72 h
KHYG-1 (IL-2 2.5 ng/mL) [5] = experiment: as above; settings: 72 h
NK-92 (IL-2 2.5 ng/mL) [6] = experiment: as above; settings: 72 h
NK-YS (IL-2 2.5 ng/mL) [7] = experiment: as above; settings: 72 h
NKL (IL-2 2.5 ng/mL) [8] = experiment: as above; settings: 72 h
SNK-6 (IL-2 2.5 ng/mL) [9] = experiment: as above; settings: 72 h
YT (IL-2 2.5 ng/mL) [10] = experiment: as above; settings: 72 h
[11] = tested on: normal primary NK cells, pool 1 (3 donors) (IL-2 2.5 ng/mL); experiment: as above; settings: 72 h
[12] = tested on: normal primary NK cells, pool 1 (3 donors), resting (IL-2 0 ng/mL); experiment: as above; settings: 72 h
[13] = tested on: normal primary NK cells, pool 2 (3 donors) (IL-2 2.5 ng/mL); experiment: as above; settings: 72 h
[14] = tested on: normal primary NK cells, pool 3 (3 donors) (IL-2 2.5 ng/mL); experiment: as above; settings: 72 h
[15] = tested on: normal NK cells expanded with K562-aAPC; experiment: drug sensitivity score (DSS) (DSS units); higher = more sensitive; extreme values may be limits of the assay; settings: 72 h; IL-2 2.5 ng/mL
Procedure: as §1

DERL-7 (IL-2 2.5 ng/mL) [16] = experiment: as above; settings: 72 h
IMC-1 (IL-2 20 ng/mL) [17] = experiment: as above; settings: 72 h
KAI3 (IL-2 2.5 ng/mL) [18] = experiment: as above; settings: 72 h
KHYG-1 (IL-2 2.5 ng/mL) [19] = experiment: as above; settings: 72 h
NK-92 (IL-2 2.5 ng/mL) [20] = experiment: as above; settings: 72 h
NK-YS (IL-2 2.5 ng/mL) [21] = experiment: as above; settings: 72 h
NKL (IL-2 2.5 ng/mL) [22] = experiment: as above; settings: 72 h
SNK-6 (IL-2 2.5 ng/mL) [23] = experiment: as above; settings: 72 h
YT (IL-2 2.5 ng/mL) [24] = experiment: as above; settings: 72 h
[25] = tested on: normal primary NK cells, pool 1 (3 donors) (IL-2 2.5 ng/mL); experiment: as above; settings: 72 h
[26] = tested on: normal primary NK cells, pool 1 (3 donors), resting (IL-2 0 ng/mL); experiment: as above; settings: 72 h
[27] = tested on: normal primary NK cells, pool 2 (3 donors) (IL-2 2.5 ng/mL); experiment: as above; settings: 72 h
[28] = tested on: normal primary NK cells, pool 3 (3 donors) (IL-2 2.5 ng/mL); experiment: as above; settings: 72 h

CC(C)C[C@H](NC(=O)[C@H](Cc1ccccc1)NC(=O)c1cnccn1)B(O)O [Bortezomib] (max concentration tested 1000 nM)
percent inhibition of viability [%]
Settings	0.1 nM	1 nM	10 nM	100 nM	1000 nM
DERL-7 (IL-2 2.5 ng/mL) [2]	-10.9	21.2	101	101	100
IMC-1 (IL-2 20 ng/mL) [3]	-1.29	-3.94	101	101	101
KAI3 (IL-2 2.5 ng/mL) [4]	-14.4	-0.34	102	105	97
KHYG-1 (IL-2 2.5 ng/mL) [5]	-3.11	-0.47	105	108	100
NK-92 (IL-2 2.5 ng/mL) [6]	-4.96	-5.77	102	107	98.3
NK-YS (IL-2 2.5 ng/mL) [7]	-5.54	-1.32	104	106	98.5
NKL (IL-2 2.5 ng/mL) [8]	-12.9	-8.26	105	107	98.5
SNK-6 (IL-2 2.5 ng/mL) [9]	21.6	12.7	98.5	101	100
YT (IL-2 2.5 ng/mL) [10]	-2.41	0.1	103	107	101
[1]	-2.23	4.9	100	101	100
[11]	-11.7	-7.66	97.5	98.1	98.4
[12]	-34.8	-55	91.9	94.3	94
[13]	-2.25	0.14	94.5	95.3	96.2
[14]	-3.11	-8.2	98.5	98.7	99.1

Settings	drug sensitivity score
DERL-7 (IL-2 2.5 ng/mL) [16]	33.9
IMC-1 (IL-2 20 ng/mL) [17]	30.2
KAI3 (IL-2 2.5 ng/mL) [18]	30.6
KHYG-1 (IL-2 2.5 ng/mL) [19]	30.9
NK-92 (IL-2 2.5 ng/mL) [20]	30.2
NK-YS (IL-2 2.5 ng/mL) [21]	30.7
NKL (IL-2 2.5 ng/mL) [22]	30.3
SNK-6 (IL-2 2.5 ng/mL) [23]	32.6
YT (IL-2 2.5 ng/mL) [24]	30.8
[15]	31.2
[25]	29.3
[26]	26.8
[27]	29.2
[28]	29.5

Nc1cc(C(F)(F)F)c(-c2cc(N3CCOCC3)nc(N3CCOCC3)n2)cn1 [Buparlisib] (max concentration tested 10000 nM)
percent inhibition of viability [%]
Settings	1 nM	10 nM	100 nM	1000 nM	10000 nM
DERL-7 (IL-2 2.5 ng/mL) [2]	-4.02	6.38	3.7	42.2	89.9
IMC-1 (IL-2 20 ng/mL) [3]	-4.05	-1.36	2.62	-18.8	99.3
KAI3 (IL-2 2.5 ng/mL) [4]	-7.19	-5.48	-0.56	43	74.8
KHYG-1 (IL-2 2.5 ng/mL) [5]	-1.22	-0.26	7	57.9	101
NK-92 (IL-2 2.5 ng/mL) [6]	7.02	-3.67	15.7	52.4	96.2
NK-YS (IL-2 2.5 ng/mL) [7]	-0.4	-0.39	9.67	55	80
NKL (IL-2 2.5 ng/mL) [8]	-8.01	-1.84	8.57	69.1	73.8
SNK-6 (IL-2 2.5 ng/mL) [9]	33.1	31.2	38.8	73.2	92.7
YT (IL-2 2.5 ng/mL) [10]	-0.5	0.16	7.95	41.5	100
[1]	-3.33	-1.98	1.34	25.6	67
[11]	-1.97	-13.5	-2.5	4.32	28.6
[12]	6.15	-7.57	-1.1	2.62	26.9
[13]	-19.2	-7.45	6.25	8.14	26.6
[14]	-11.4	-7.58	0	0.01	19.4

Settings	drug sensitivity score
DERL-7 (IL-2 2.5 ng/mL) [16]	9.98
IMC-1 (IL-2 20 ng/mL) [17]	4.51
KAI3 (IL-2 2.5 ng/mL) [18]	9.35
KHYG-1 (IL-2 2.5 ng/mL) [19]	12.6
NK-92 (IL-2 2.5 ng/mL) [20]	12.2
NK-YS (IL-2 2.5 ng/mL) [21]	11.7
NKL (IL-2 2.5 ng/mL) [22]	14
SNK-6 (IL-2 2.5 ng/mL) [23]	23.7
YT (IL-2 2.5 ng/mL) [24]	10.4
[15]	7.15
[25]	1.89
[26]	1.48
[27]	1.72
[28]	0.55
